From patent EP3623369A1, “NOVEL MORPHOLINYL AMINE COMPOUNDS FOR THE TREATMENT OF AUTOIMMUNE DISEASE” (F. Hoffmann-La Roche AG, priority 2018, dated 2020)

Target: T1, human TLR8 (Homo sapiens, UniProt Q9NR97)
T1 sequence (Q9NR97 27-1041): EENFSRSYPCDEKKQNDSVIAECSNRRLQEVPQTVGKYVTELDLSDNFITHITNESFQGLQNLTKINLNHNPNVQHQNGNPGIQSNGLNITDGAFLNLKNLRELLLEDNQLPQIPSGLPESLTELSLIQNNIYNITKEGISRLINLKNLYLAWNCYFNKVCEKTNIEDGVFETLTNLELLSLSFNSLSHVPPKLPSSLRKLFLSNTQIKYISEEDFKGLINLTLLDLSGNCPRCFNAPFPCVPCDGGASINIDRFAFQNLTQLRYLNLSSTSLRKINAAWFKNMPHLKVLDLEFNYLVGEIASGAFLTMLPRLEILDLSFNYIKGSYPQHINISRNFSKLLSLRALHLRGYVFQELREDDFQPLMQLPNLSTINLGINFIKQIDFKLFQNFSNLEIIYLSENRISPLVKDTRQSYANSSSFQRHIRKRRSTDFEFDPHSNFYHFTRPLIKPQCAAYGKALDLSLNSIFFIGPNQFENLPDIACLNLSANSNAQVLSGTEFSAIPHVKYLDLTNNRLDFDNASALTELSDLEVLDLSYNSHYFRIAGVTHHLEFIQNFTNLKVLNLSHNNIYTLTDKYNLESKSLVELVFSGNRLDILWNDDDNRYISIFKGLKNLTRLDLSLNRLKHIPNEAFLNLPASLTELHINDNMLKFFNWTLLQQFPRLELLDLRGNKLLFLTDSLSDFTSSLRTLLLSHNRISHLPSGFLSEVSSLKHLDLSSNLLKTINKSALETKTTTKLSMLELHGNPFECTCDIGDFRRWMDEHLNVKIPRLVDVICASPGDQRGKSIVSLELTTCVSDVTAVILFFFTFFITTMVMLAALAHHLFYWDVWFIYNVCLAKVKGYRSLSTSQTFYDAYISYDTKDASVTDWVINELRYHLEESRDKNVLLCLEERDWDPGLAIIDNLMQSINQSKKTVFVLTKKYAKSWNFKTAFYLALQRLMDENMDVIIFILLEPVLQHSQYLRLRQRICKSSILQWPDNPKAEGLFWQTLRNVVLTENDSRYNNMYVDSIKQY
Assay: HEK293-Blue-hTLR-8 cells assay (SEAP reporter, R848 stimulation)
Type: cell-based
Settings: HEK293-Blue-hTLR8 cells, R848, 20 hrs; 0.003 is the lowest tested concentration; read-out: HEK/hTLR8 IC50
Protocol: The following tests were carried out in order to determine the activity of the compounds of formula (I) or (Ia) in HEK293-Blue-hTLR-7/8/9 cells assay.
HEK293-Blue-hTLR-8 cells assay:
A stable HEK293-Blue-hTLR-8 cell line was purchased from InvivoGen (Cat.#: hkb-htlr8, San Diego, California, USA). These cells were originally designed for studying the stimulation of human TLR8 by monitoring the activation of NF-κB. A SEAP (secreted embryonic alkaline phosphatase) reporter gene was placed under the control of the IFN-β minimal promoter fused to five NF-κB and AP-1-binding sites. The SEAP was induced by activating NF-κB and AP-1 via stimulating HEK-Blue hTLR8 cells with TLR8 ligands. Therefore the reporter expression was declined by TLR8 antagonist under the stimulation of a ligand, such as R848, for incubation of 20 hrs. The cell culture supernatant SEAP reporter activity was determined using QUANTI-Blue™ kit (Cat.#: rep-qb1, Invivogen, San Diego, Ca, USA) at a wavelength of 640 nm, a detection medium that turns purple or blue in the presence of alkaline phosphatase.
HEK293-Blue-hTLR8 cells were incubated at a density of 250,000∼450,000 cells/mL in a volume of 170 µL in a 96-well plate in Dulbecco's Modified Eagle's medium (DMEM) containing 4.5 g/L glucose, 50 U/mL penicillin, […], […], 2 mM L-glutamine, 10% (v/v) heat-inactivated fetal bovine serum with addition of 20 µL test compound in a serial dilution in the presence of final DMSO at 1% and 10 µL of 60uM R848 in above DMEM, perform incubation under 37 °C in a CO2 incubator for 20 hrs. Then 20 µL of the supernatant from each well was incubated with 180 µL Quanti-blue substrate solution at 37°C for 2 hrs and the absorbance was read at 620∼655 nm using a spectrophotometer. The signalling pathway that TLR8 activation leads to downstream NF-κB activation has been widely accepted, and therefore similar reporter assay was modified for evaluating TLR8 antagonist.

IC50 [µM] | Molecule
0.005 | C[C@@H]1CN(c2ccc3c(c2)CN(C[C@H]2CN(c4ccc(C#N)c5ncccc45)C[C@@H](C)O2)C3)CCN1 [Example 62, 5-[(2R,6S)-2-methyl-6-[[5-[(3R)-3-methylpiperazin-1-yl]isoindolin-2-yl]methyl]morpholin-4-yl] quinoline-8-carbonitrile]
0.021 | C[C@@H]1CN(c2ccc(C#N)n3nccc23)C[C@H](CN2CCc3cc(N4CCN(C)CC4)ccc3C2)O1 [Example 15, 4-[(2R,6S)-2-methyl-6-[[6-(4-methylpiperazin-1-yl)-3,4-dihydro-1H-isoquinolin-2-yl]methyl]morpholin-4-yl]pyrazolo[1,5-a]pyridine-7-carbonitrile]
0.008 | C[C@@H]1CN(c2ccc(C#N)c3ncccc23)C[C@H](CN2Cc3ccc(N4CC(N)C4)cc3C2)O1 [Example 77, 5-[(2S,6R)-2-[[5-(3-aminoazetidin-1-yl)isoindolin-2-yl]methyl]-6-methyl-morpholin-4-yl]quinoline-8-carbonitrile]
< 0.003 | CC1CNCCN1c1ccc2c(c1)CN(C[C@H]1CN(c3ccc(C#N)c4ncccc34)C[C@@H](C)O1)C2 (stereo partly drawn) [Example 78, 5-[(2R,6S)-2-methyl-6-[[5-(2-methylpiperazin-1-yl)isoindolin-2-yl]methyl]morpholin-4-yl] quinoline-8-carbonitrile]
0.02 | C[C@@H]1CN(c2ccc(C#N)c3ncccc23)C[C@H](CN2Cc3ccc(N4CCNC[C@H]4CO)cc3C2)O1 [Example 83, 5-[(2S,6R)-2-[[5-[(2S)-2-(hydroxymethyl)piperazin-1-yl]isoindolin-2-yl]methyl]-6-methyl-morpholin-4-yl]quinoline-8-carbonitrile]
0.022 | C[C@@H]1CN(c2ccc(C#N)c3nccnc23)C[C@H](CNCc2ccc(N3CCNCC3)cc2)O1 [Example 84, 8-[(2R,6S)-2-methyl-6-[[(4-piperazin-1-ylphenyl)methylamino]methyl]morpholin-4-yl]quinoxaline-5-carbonitrile]
0.007 | C[C@@H]1CN(c2ccc(C#N)c3ncccc23)C[C@H](CN2Cc3ccc(N4CC5(CCN5)C4)cc3C2)O1 [Example 55, 5-[(2S,6R)-2-[[5-(1,6-diazaspiro[3.3]heptan-6-yl)isoindolin-2-yl]methyl]-6-methyl-morpholin-4-yl]quinoline-8-carbonitrile]
< 0.003 | C[C@@H]1CN(c2ccc(C#N)c3nccnc23)C[C@H](CN2Cc3ccc(N4CCNCC4)cc3C2)O1 [Example 12, 8-[(2R,6S)-2-methyl-6-[(5-piperazin-1-ylisoindolin-2-yl)methyl]morpholin-4-yl]quinoxaline-5-carbonitrile]
< 0.003 | C[C@@H]1CN(c2ccc(C#N)c3ncccc23)C[C@H](CN2Cc3cnc(N4CCNCC4)nc3C2)O1 [Example 63, 5-[(2R,6S)-2-methyl-6-[(2-piperazin-1-yl-5,7-dihydropyrrolo[3,4-d]pyrimidin-6-yl)methyl]morpholin-4-yl]quinoline-8-carbonitrile]
< 0.003 | CC1CN(c2ccc3c(c2)CN(C[C@H]2CN(c4ccc(C#N)c5nccnc45)C[C@@H](C)O2)C3)CCN1 (stereo partly drawn) [Example 36, 8-[(2R,6S)-2-methyl-6-[[5-(3-methylpiperazin-1-yl)isoindolin-2-yl]methyl]morpholin-4-yl]quinoxaline-5-carbonitrile]
< 0.003 | C[C@@H]1CN(c2ccc(C#N)c3nccnc23)C[C@H](CN2CCc3cc(N4CCNCC4)ccc3C2)O1 [Example 13, 8-[(2R,6S)-2-methyl-6-[(6-piperazin-1-yl-3,4-dihydro-1H-isoquinolin-2-yl)methyl]morpholin-4-yl]quinoxaline-5-carbonitrile]
0.005 | C[C@@H]1CN(c2ccc(C#N)c3nccnc23)C[C@H](CN2Cc3ccc(N4CCNC5(CC5)C4)cc3C2)O1 [Example 38, 8-[(2S,6R)-2-[[5-(4,7-diazaspiro[2.5]octan-7-yl)isoindolin-2-yl]methyl]-6-methyl-morpholin-4-yl]quinoxaline-5-carbonitrile]
0.016 | C[C@@H]1CN(c2ccc(C#N)n3nccc23)C[C@H](CNCc2ccc(N3CCNCC3)cc2)O1 [Example 16, 4-[(2R,6S)-2-methyl-6-[[(4-piperazin-1-ylphenyl)methylamino]methyl]morpholin-4-yl]pyrazolo[1,5-a]pyridine-7-carbonitrile]
0.026 | C[C@@H]1CN(c2ccc(C#N)c3ncccc23)C[C@H](CNCc2ccc(N3CCNCC3)cc2)O1 [Example 86, 5-[(2R,6S)-2-methyl-6-[[(4-piperazin-1-ylphenyl)methylamino]methyl]morpholin-4-yl] quinoline-8-carbonitrile]
0.017 | 5-[(2S,6R)-2-[[5-[3-(hydroxymethyl)piperazin-1-yl]isoindolin-2-yl]methyl]-6-methyl-morpholin-4-yl]quinoline-8-carbonitrile [Example 85]
0.003 | C[C@@H]1CN(c2ccc(C#N)c3nccnc23)C[C@H](CN2Cc3cc(N4CCNCC4)cnc3C2)O1 [Example 30, 8-[(2R,6S)-2-methyl-6-[(3-piperazin-1-yl-5,7-dihydropyrrolo[3,4-b]pyridin-6-yl)methyl]morpholin-4-yl]quinoxaline-5-carbonitrile]
0.004 | C[C@@H]1CN(c2ccc(C#N)c3ncccc23)C[C@H](CN2Cc3cc(N4CCNCC4)cnc3C2)O1 [Example 20, 5-[(2R,6S)-2-methyl-6-[(3-piperazin-1-yl-5,7-dihydropyrrolo[3,4-b]pyridin-6-yl)methyl]morpholin-4-yl]quinoline-8-carbonitrile]
0.004 | C[C@@H]1CN(c2ccc(C#N)c3nccnc23)C[C@H](CN2Cc3ccc(N4CCN5CCCCC5C4)cc3C2)O1 (stereo partly drawn) [Example 40, 8-[(2S,6R)-2-[[5-(1,3,4,6,7,8,9,9a-octahydropyrido[1,2-a]pyrazin-2-yl)isoindolin-2-yl]methyl]-6-methyl-morpholin-4-yl]quinoxaline-5-carbonitrile]

Molecule | IC50 [µM]
C[C@@H]1CN(c2ccc(C#N)c3nccnc23)C[C@H](CN2Cc3ccc(N4CC5COCC(C4)N5)cc3C2)O1 [Example 49, 8-[(2R,6S)-2-methyl-6-[[5-(3-oxa-7,9-diazabicyclo[3.3.1]nonan-7-yl)isoindolin-2-yl]methyl]morpholin-4-yl]quinoxaline-5-carbonitrile] | 0.014
C[C@@H]1CN(c2ccc(C#N)c3ncccc23)C[C@H](CN2Cc3ccc(N4CC5CCC(C4)N5)cc3C2)O1 [Example 42, 5-[(2S,6R)-2-[[5-(3,8-diazabicyclo[3.2.1]octan-3-yl)isoindolin-2-yl]methyl]-6-methyl-morpholin-4-yl]quinoline-8-carbonitrile] | 0.013
C[C@@H]1CN(c2ccc(C#N)c3ncccc23)C[C@H](CN2Cc3ccc(N4C5CNCC4COC5)cc3C2)O1 [Example 46, 5-[(2R,6S)-2-methyl-6-[[5-(3-oxa-7,9-diazabicyclo[3.3.1]nonan-9-yl)isoindolin-2-yl]methyl]morpholin-4-yl]quinoline-8-carbonitrile] | 0.019
C[C@@H]1CN(c2ccc(C#N)c3ncccc23)C[C@H](CN2Cc3ccccc3C2)O1 [Example R3, 5-[(2S,6R)-2-(isoindolin-2-ylmethyl)-6-methyl-morpholin-4-yl]quinoline-8-carbonitrile, reference compound] | 0.146
